This note sets out measurements from patent US12441726B2, “Compounds and uses thereof” (Foghorn Therapeutics Inc., priority 2020, dated 2025).

One assay deals with BRM (Homo sapiens, UniProt P51531). Nature of the assay: ATPase catalytic activity assay (ADP-Glo), BRM. To be noted: 30 nM BRM, 400 μM ATP; for IC50: BRM ATPase: IC50 (uM). (In ADP-Glo the light output rises with the ADP produced.)
The next assay deals with BRG-1 (Homo sapiens, UniProt P51532). Briefly: ATPase catalytic activity assay (ADP-Glo), BRG-1. The note with it: for Emax: 1 h, read-out: BRG1 Max % Inhibition, ADP-Glo, 30 nM BRG-1, 400 μM ATP.
Chain of BRG-1 (P51532 whole entry): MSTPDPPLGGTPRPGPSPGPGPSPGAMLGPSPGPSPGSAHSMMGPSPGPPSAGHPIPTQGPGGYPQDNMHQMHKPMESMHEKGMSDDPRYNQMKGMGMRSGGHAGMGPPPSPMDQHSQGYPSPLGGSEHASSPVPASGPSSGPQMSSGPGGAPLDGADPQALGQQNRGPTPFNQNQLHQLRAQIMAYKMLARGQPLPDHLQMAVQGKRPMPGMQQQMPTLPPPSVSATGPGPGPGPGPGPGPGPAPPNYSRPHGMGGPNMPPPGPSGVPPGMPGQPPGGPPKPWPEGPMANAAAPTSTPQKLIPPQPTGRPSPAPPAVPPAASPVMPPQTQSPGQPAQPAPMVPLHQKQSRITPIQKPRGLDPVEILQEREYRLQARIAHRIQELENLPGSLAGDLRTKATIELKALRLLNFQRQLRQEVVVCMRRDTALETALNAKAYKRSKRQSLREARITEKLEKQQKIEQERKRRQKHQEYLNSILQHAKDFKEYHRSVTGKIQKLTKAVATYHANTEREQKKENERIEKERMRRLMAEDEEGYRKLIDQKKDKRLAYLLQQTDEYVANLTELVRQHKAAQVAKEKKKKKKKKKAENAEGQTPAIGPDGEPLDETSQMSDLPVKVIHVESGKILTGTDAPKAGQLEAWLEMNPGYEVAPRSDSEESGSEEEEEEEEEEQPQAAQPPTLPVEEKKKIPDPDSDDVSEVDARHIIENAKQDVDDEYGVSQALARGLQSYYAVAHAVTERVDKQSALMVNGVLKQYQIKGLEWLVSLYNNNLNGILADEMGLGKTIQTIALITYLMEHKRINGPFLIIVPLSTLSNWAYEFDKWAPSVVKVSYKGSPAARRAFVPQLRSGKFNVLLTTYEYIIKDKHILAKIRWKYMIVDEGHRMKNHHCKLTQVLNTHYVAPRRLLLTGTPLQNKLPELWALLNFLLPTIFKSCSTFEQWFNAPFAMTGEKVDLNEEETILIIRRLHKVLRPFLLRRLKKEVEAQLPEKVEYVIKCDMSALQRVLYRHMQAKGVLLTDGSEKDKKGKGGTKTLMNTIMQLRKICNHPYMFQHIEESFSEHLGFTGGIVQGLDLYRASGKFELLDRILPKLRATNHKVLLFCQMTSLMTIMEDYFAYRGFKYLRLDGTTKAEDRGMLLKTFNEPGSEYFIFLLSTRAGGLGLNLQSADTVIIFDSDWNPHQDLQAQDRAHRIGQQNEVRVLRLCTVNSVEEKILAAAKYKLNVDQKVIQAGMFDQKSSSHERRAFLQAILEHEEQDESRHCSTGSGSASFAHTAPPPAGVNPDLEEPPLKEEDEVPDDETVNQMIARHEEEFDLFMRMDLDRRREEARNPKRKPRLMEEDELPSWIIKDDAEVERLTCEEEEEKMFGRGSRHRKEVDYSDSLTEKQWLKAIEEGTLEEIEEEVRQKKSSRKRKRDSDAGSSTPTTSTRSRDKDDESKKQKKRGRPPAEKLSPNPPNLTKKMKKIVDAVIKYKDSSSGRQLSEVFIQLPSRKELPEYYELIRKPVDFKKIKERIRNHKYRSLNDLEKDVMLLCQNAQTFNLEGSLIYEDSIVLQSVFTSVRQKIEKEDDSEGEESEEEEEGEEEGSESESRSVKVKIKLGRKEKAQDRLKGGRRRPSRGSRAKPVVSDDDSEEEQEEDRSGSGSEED

Some results are limits rather than exact numbers.

Chain of BRM (P51531 whole entry): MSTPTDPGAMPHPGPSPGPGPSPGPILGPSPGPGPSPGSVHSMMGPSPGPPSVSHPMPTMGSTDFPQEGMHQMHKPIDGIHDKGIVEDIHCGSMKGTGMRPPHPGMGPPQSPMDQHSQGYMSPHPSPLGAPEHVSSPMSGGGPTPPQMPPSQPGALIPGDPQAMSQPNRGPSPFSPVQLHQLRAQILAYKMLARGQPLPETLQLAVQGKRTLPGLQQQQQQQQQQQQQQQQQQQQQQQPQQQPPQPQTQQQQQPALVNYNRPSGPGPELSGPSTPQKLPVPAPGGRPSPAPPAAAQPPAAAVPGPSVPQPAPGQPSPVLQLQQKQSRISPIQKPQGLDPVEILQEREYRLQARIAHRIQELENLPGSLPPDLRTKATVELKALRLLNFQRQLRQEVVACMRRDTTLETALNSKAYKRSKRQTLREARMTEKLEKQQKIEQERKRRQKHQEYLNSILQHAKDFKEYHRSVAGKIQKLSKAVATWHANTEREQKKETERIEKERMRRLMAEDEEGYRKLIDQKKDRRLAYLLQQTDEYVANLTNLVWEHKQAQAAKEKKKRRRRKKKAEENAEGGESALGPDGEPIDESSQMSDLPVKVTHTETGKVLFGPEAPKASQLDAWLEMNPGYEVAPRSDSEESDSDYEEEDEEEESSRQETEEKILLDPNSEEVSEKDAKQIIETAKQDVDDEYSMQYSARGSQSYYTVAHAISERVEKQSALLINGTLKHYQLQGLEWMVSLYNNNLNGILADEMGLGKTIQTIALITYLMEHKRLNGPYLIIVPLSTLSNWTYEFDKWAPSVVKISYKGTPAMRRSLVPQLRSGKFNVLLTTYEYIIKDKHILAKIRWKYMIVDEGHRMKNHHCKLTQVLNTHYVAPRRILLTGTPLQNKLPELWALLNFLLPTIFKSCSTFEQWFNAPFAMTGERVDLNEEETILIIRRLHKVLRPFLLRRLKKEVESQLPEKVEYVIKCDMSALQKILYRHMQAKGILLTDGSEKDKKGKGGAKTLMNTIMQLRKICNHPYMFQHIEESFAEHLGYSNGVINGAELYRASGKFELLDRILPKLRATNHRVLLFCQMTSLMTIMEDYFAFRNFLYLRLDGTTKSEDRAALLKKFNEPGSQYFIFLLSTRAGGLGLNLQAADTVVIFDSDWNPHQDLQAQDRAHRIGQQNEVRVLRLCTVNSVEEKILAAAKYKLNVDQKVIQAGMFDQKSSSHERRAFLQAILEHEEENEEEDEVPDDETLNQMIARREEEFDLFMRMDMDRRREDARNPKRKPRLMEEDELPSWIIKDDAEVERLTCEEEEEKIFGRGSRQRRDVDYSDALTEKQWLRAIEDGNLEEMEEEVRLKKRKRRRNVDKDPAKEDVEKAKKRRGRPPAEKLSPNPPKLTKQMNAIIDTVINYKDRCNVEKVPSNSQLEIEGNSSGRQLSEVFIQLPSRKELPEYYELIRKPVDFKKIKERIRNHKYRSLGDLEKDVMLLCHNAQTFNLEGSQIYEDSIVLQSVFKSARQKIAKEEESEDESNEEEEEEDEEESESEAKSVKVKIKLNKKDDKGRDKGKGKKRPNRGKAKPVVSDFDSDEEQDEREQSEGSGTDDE
Method for BRM: The ATPase catalytic activity of BRM or BRG-1 was measured by an in vitro biochemical assay using ADP-Glo™ (Promega, V9102). The ADP-Glo™ kinase assay is performed in two steps once the reaction is complete. The first step is to deplete any unconsumed ATP in the reaction. The second step is to convert the reaction product ADP to ATP, which will be utilized by the luciferase to generate luminesce and be detected by a luminescence reader, such as Envision.
Then following addition of 5 μL of ADP-Glo™ Reagent provided in the kit, the reaction incubates at room temperature for 40 minutes. Then 10 μL of Kinase Detection Reagent provided in the kit is added to convert ADP to ATP, and the reaction incubates at room temperature for 60 minutes. Finally, luminescence measurement is collected with a plate-reading luminometer, such as Envision.

For orientation: IC50 means the concentration needed to halve the response being measured. Consider `C[C@@]1(F)COCc2ccc(C(=O)NCc3cc4nc(-c5cncc(N6CCC6)n5)ccc4nn3)cc21` [Compound 276], for which, at BRM, the “BRM Max % Inhibition” value came to 98% and the IC50 was less than 0.1 µM. For the same compound, at BRG-1, the IC50 is 100 to 500 nM and the Emax came out at 95%.

Regarding `C[C@@]1(C#N)COCc2ccc(C(=O)NCc3cc4nc(-c5ccccc5)cnc4cn3)cc21` [Compound 463], on BRM, the “BRM Max % Inhibition” value stood at 98% and the IC50 was less than 0.1 µM. For the same compound, on BRG-1, the IC50 lay in the range of 500 to 1000 nM and the Emax was 82%.

In the case of `CN(C)c1cccc(-c2ccc3cnc(CNC(=O)c4cnc5c(c4)[C@@](F)(C(F)F)COC5)cc3n2)n1` [Compound 227], at BRM, the “BRM Max % Inhibition” value stood at 99% and the IC50 was less than 0.1 µM. In addition, on BRG-1, the half-inhibitory concentration (IC50) lay in the range of 100 to 500 nM and the Emax was determined as 94%.

Consider `C[C@@H]1CN(c2cccc([C@H]3C[C@@H](c4ccnc(CNC(=O)c5ccc6c(c5)[C@](C)(C#N)COC6)c4)C3)n2)C[C@H](C)O1` [Compound 82], for which, on BRM, the “BRM Max % Inhibition” value is reported as 88% and the IC50 lay within 0.1 to 0.5 µM. In addition, on BRG-1, the IC50 is more than 1000 nM and the Emax is 38%.

For the compound `C[C@@]1(C#N)COCc2ccc(C(=O)NCc3cc4cc(-c5ccnc(C6CC6)c5F)cnc4cn3)cc21` [Compound 280], at BRM, the “BRM Max % Inhibition” value was determined as 96% and the half-inhibitory concentration (IC50) lay in the range of 0.1 to 0.5 µM. For the same compound, at BRG-1, the IC50 fell in the range of 100 to 500 nM and the Emax was determined as 82%.

For `C[C@@]1(C#N)COCc2ccc(C(=O)NCc3cc(N4CCc5ccccc5C4)cnn3)cc21` [Compound 75], at BRM, the “BRM Max % Inhibition” value is recorded as 97% and the IC50 was in the range of 0.1 to 0.5 µM. Further, at BRG-1, the IC50 lay in the range of 500 to 1000 nM and the Emax was 54%.

On to `C[C@@]1(F)COCc2ccc(C(=O)NCc3cc4nc(-c5ccc(=O)n(CC(F)F)n5)ccc4cn3)cc21` [Compound 318], for which, at BRM, the “BRM Max % Inhibition” value came out at 107% and the IC50 lay within 0.1 to 0.5 µM. For the same compound, at BRG-1, the IC50 lay in the range of 500 to 1000 nM and the Emax amounted to 55%.

For the compound `CN1C[C@@](C)(C#N)c2cc(C(=O)NCc3cc4nc(-c5ccccc5)ccc4cn3)ccc21` [Compound 96], on BRM, the “BRM Max % Inhibition” value is 84% and the IC50 was more than 1 µM. In addition, at BRG-1, the IC50 is more than 1000 nM and the Emax was 20%.

For the compound `C[C@@]1(F)COCc2ccc(C(=O)NCc3cc4nc(-c5ccnc(N6CC[C@@H]7COC[C@H]7C6)n5)ccc4cn3)cc21` [Compound 308], on BRM, the “BRM Max % Inhibition” value worked out at 99% and the IC50 was less than 0.1 µM. Further, at BRG-1, the IC50 was less than 100 nM and the Emax was found to be 96%.

As to `COc1nn(C)cc1-c1cnc2cnc(CNC(=O)c3ccc4c(c3)[C@](C)(C#N)COC4)cc2c1` [Compound 261], at BRM, the “BRM Max % Inhibition” value is on record as 94% and the IC50 fell in the range of 0.1 to 0.5 µM. For the same compound, at BRG-1, the IC50 lay in the range of 500 to 1000 nM and the Emax was found to be 61%.

With `C[C@@]1(C#N)COCc2ccc(C(=O)NCc3cc4nc(-c5ccccn5)ccc4cn3)cc21` [Compound 102], on BRM, the “BRM Max % Inhibition” value came to 93% and the IC50 fell in the range of 0.1 to 0.5 µM. Further, on BRG-1, the IC50 was more than 1000 nM and the Emax was found to be 56%.

Consider `Cn1ncc2c1CN(c1ccc3cnc(CNC(=O)c4ccc5c(c4)[C@](C)(C#N)COC5)cc3n1)CC2` [Compound 457], for which, on BRM, the “BRM Max % Inhibition” value is on record as 95% and the half-maximal inhibitory concentration (IC50) is 0.1 to 0.5 µM. Besides, on BRG-1, the IC50 lay in the range of 500 to 1000 nM and the Emax stood at 61%.

Consider `C[C@@]1(C#N)COCc2ccc(C(=O)NCc3cc4cc(-c5ccnc(N6CCC6)c5F)ccc4cn3)cc21` [Compound 272], for which, at BRM, the “BRM Max % Inhibition” value is on record as 104% and the IC50 is less than 0.1 µM. At BRG-1, the IC50 was in the range of 100 to 500 nM and the Emax is 95%.

With `CC1c2cc(CNC(=O)c3ccc4c(c3)[C@](C)(C#N)COC4)ncc2CCN1c1cncc(C2CC2)n1` (some centres unmarked) [Compound 209], on BRM, the “BRM Max % Inhibition” value is 89% and the IC50 fell in the range of 0.1 to 0.5 µM. At BRG-1, the IC50 was in the range of 500 to 1000 nM and the Emax stood at 51%.

Take `C[C@@]1(C#N)COCc2ccc(C(=O)NCc3cc(N4CCC(c5ccccc5)C4)ccn3)cc21` (some centres unmarked) [Compound 44]: at BRM, the “BRM Max % Inhibition” value is listed as 97% and the IC50 fell in the range of 0.1 to 0.5 µM. For the same compound, on BRG-1, the IC50 was more than 1000 nM and the Emax worked out at 69%.

On to `C[C@@]1(F)COCc2ccc(C(=O)NCc3cc4nc(-c5cncc(N6CCC6)n5)ccc4cn3)cc21` [Compound 401], for which, on BRM, the “BRM Max % Inhibition” value amounted to 97% and the half-inhibitory concentration (IC50) was less than 0.1 µM. Also, on BRG-1, the IC50 is 100 to 500 nM and the Emax came out at 91%.

Regarding `C[C@@]1(C#N)COCc2ccc(C(=O)NCc3cc4cc(-c5ccnc(N6CCC6)n5)cnc4cn3)cc21` [Compound 377], at BRM, the “BRM Max % Inhibition” value is on record as 98% and the IC50 is less than 0.1 µM. Further, on BRG-1, the IC50 lay in the range of 500 to 1000 nM and the Emax was 89%.

On to `C[C@@]1(C#N)COCc2ccc(C(=O)NCc3cc(N4CCc5ccccc5CC4)ccn3)cc21` [Compound 50], for which, on BRM, the “BRM Max % Inhibition” value was determined as 90% and the IC50 fell in the range of 0.1 to 0.5 µM. At BRG-1, the IC50 was more than 1000 nM and the Emax was determined as 53%.

With `C[C@@]1(C#N)COCc2ccc(C(=O)NCc3cc4nc(-c5ccccc5)sc4cn3)cc21` [Compound 124], on BRM, the “BRM Max % Inhibition” value worked out at 97% and the IC50 was less than 0.1 µM. For the same compound, on BRG-1, the IC50 is more than 1000 nM and the Emax is 98%.

For `C[C@@]1(C#N)COCc2ccc(C(=O)NCc3nccc(N4CCc5ccccc5C4)c3F)cc21` [Compound 66], on BRM, the “BRM Max % Inhibition” value is given as 99% and the IC50 was in the range of 0.1 to 0.5 µM. Besides, at BRG-1, the IC50 is 500 to 1000 nM and the Emax came out at 76%.

Regarding `C[C@@]1(C#N)COCc2ccc(C(=O)NCc3cc([C@H]4C[C@H](c5cccc(N6CCOCC6)n5)C4)ccn3)cc21` [Compound 79], at BRM, the “BRM Max % Inhibition” value was 96% and the IC50 was in the range of 0.1 to 0.5 µM. For the same compound, at BRG-1, the IC50 fell in the range of 500 to 1000 nM and the Emax amounted to 74%.

Take `O=C(NCc1cc(C#Cc2ccccc2)ccn1)c1ccc2c(c1)[C@@](F)(C(F)F)COC2` [Compound 47]: on BRM, the “BRM Max % Inhibition” value is recorded as 90% and the IC50 was 0.1 to 0.5 µM. Besides, at BRG-1, the IC50 is more than 1000 nM and the Emax worked out at 47%.

On to `C[C@@]1(C#N)COCc2ncc(C(=O)NCc3cc4nc(-c5cccc(N6CCC6)n5)ccc4cn3)cc21` [Compound 210], for which, on BRM, the “BRM Max % Inhibition” value came to 99% and the IC50 was less than 0.1 µM. Besides, on BRG-1, the IC50 was in the range of 100 to 500 nM and the Emax was determined as 96%.

Consider `C[C@@]1(C#N)COCc2ccc(C(=O)NCc3cc([C@H]4C[C@@H]4c4ccccc4)ccn3)cc21` [Compound 7], for which, on BRM, the “BRM Max % Inhibition” value is 81% and the IC50 was more than 1 µM. In addition, on BRG-1, the half-maximal inhibitory concentration (IC50) was more than 1000 nM and the Emax was 12%.

For the compound `CN(C)c1nccc(N2CCc3cnc(CNC(=O)c4ccc5c(c4)[C@](C)(C#N)COC5)cc3C2)n1` [Compound 326], at BRM, the “BRM Max % Inhibition” value is on record as 97% and the IC50 fell in the range of 0.1 to 0.5 µM. Moreover, on BRG-1, the 50% inhibitory concentration (IC50) lay within 500 to 1000 nM and the Emax turned out to be 70%.

Turning to `C[C@@]1(C#N)COCc2ccc(C(=O)NCc3cc4nc(-c5cccnc5)ccc4cn3)cc21` [Compound 114], on BRM, the “BRM Max % Inhibition” value is listed as 86% and the IC50 fell in the range of 0.5 to 1 µM. Further, on BRG-1, the IC50 was more than 1000 nM and the Emax was found to be 42%.

As to `C[C@@]1(F)COCc2ncc(C(=O)NCc3cc4nc(-c5cncc(C6CC6)n5)ccc4cn3)cc21` [Compound 301], on BRM, the “BRM Max % Inhibition” value is on record as 96% and the IC50 is less than 0.1 µM. Moreover, on BRG-1, the IC50 was in the range of 100 to 500 nM and the Emax was 86%.

As for `C[C@@]1(C#N)COCc2ccc(C(=O)NCc3cc4nc(-c5cnn(C6COC6)c5)ccc4cn3)cc21` [Compound 513], at BRM, the “BRM Max % Inhibition” value is given as 87% and the IC50 lay in the range of 0.1 to 0.5 µM. Moreover, on BRG-1, the IC50 is more than 1000 nM and the Emax was found to be 36%.

Consider `CN1CCN(c2cccc(-c3ccc4cnc(CNC(=O)c5ccc6c(c5)[C@](C)(C#N)COC6)cc4n3)n2)CC1` [Compound 465], for which, on BRM, the “BRM Max % Inhibition” value amounted to 99% and the IC50 was less than 0.1 µM. Also, on BRG-1, the IC50 lay within 100 to 500 nM and the Emax turned out to be 89%.

With `COc1nn(C)cc1-c1ccc2cnc(CNC(=O)c3ccc4c(c3)[C@](C)(C#N)COC4)cc2n1` [Compound 454], at BRM, the “BRM Max % Inhibition” value is 97% and the IC50 is less than 0.1 µM. Also, on BRG-1, the IC50 is 100 to 500 nM and the Emax amounted to 88%.

As for `COc1nn(C)cc1-c1ccc2cnc(CNC(=O)c3cnc4c(c3)[C@](C)(F)COC4)cc2n1` [Compound 334], at BRM, the “BRM Max % Inhibition” value is on record as 96% and the IC50 is 0.1 to 0.5 µM. Also, at BRG-1, the IC50 was in the range of 500 to 1000 nM and the Emax amounted to 61%.

Regarding `C[C@@]1(C#N)COCc2ccc(C(=O)NCc3cc4nc(-c5ccnc(N6CCC6)c5F)ccc4cn3)cc21` [Compound 412], at BRM, the “BRM Max % Inhibition” value was 99% and the IC50 is less than 0.1 µM. Moreover, on BRG-1, the half-inhibitory concentration (IC50) was in the range of 100 to 500 nM and the Emax came out at 98%.

Turning to `C[C@@]1(C#N)COCc2ccc(C(=O)NCc3cc4nc(-n5cccc(C6CC6)c5=O)ccc4cn3)cc21` [Compound 282], on BRM, the “BRM Max % Inhibition” value amounted to 87% and the IC50 fell in the range of 0.1 to 0.5 µM. Moreover, at BRG-1, the IC50 was more than 1000 nM and the Emax was determined as 45%.

As to `C[C@@]1(C#N)COCc2ccc(C(=O)NCc3cc4nc(N5CCCN(C6CCC6)C5=O)ccc4cn3)cc21` [Compound 350], on BRM, the “BRM Max % Inhibition” value was determined as 96% and the IC50 was 0.1 to 0.5 µM. On BRG-1, the IC50 is more than 1000 nM and the Emax worked out at 54%.

Consider `CNC(=O)c1ccc(-c2ccc3cnc(CNC(=O)c4ccc5c(c4)[C@](C)(F)COC5)cc3n2)cn1` [Compound 260], for which, at BRM, the “BRM Max % Inhibition” value stood at 83% and the IC50 was in the range of 0.1 to 0.5 µM. For the same compound, on BRG-1, the IC50 is more than 1000 nM and the Emax was determined as 42%.
